Tests used:
[1] = Inhibitory activity against Varicella Zoster Virus (VZV) protease was determined using quenched fluorescence assay
[2] = Inhibitory activity against cytomegalovirus (CMV) protease was determined using quenched fluorescence assay

| SMILES | IC50 [1] | IC50 [2] |
| --- | --- | --- |
| Cc1ccsc1/C=C/C(=O)N[C@@H](C)c1nc2scc(C)c2c(=O)o1 [(E)-N-[(S)-1-(5-Methyl-4-oxo-4H-thieno[2,3-d][1,3]oxazin-2-yl)-ethyl]-3-(3-methyl-thiophen-2-yl)-acrylamide] | 290 nM | 670 nM |
| Cc1csc2nc([C@H](C)NC(=O)/C=C/c3ccccc3Cl)oc(=O)c12 [(E)-3-(2-Chloro-phenyl)-N-[(S)-1-(5-methyl-4-oxo-4H-thieno[2,3-d][1,3]oxazin-2-yl)-ethyl]-acrylamide] | 35 nM | 380 nM |
| Cc1csc2nc([C@H](C)NC(=O)/C=C/c3cccc(Cl)c3)oc(=O)c12 [(E)-3-(3-Chloro-phenyl)-N-[(S)-1-(5-methyl-4-oxo-4H-thieno[2,3-d][1,3]oxazin-2-yl)-ethyl]-acrylamide] | 42 nM | – |
| Cc1csc2nc([C@H](C)NC(=O)/C=C/c3ccc(Br)o3)oc(=O)c12 [(E)-3-(5-Bromo-furan-2-yl)-N-[(S)-1-(5-methyl-4-oxo-4H-thieno[2,3-d][1,3]oxazin-2-yl)-ethyl]-acrylamide] | 41 nM | 180 nM |
| Cc1csc2nc([C@H](C)NC(=O)/C=C/c3ccccc3Br)oc(=O)c12 [(E)-3-(2-Bromo-phenyl)-N-[(S)-1-(5-methyl-4-oxo-4H-thieno[2,3-d][1,3]oxazin-2-yl)-ethyl]-acrylamide] | 39 nM | 380 nM |
| Cc1csc2nc([C@H](C)NC(=O)C=C(c3cccs3)c3cccs3)oc(=O)c12 [N-[(S)-1-(5-Methyl-4-oxo-4H-thieno[2,3-d][1,3]oxazin-2-yl)-ethyl]-3,3-di-thiophen-2-yl-acrylamide] | 42 nM | 250 nM |
| Cc1csc2nc([C@H](C)NC(=O)/C=C(\c3ccccc3)c3cccs3)oc(=O)c12 [(E)-N-[(S)-1-(5-Methyl-4-oxo-4H-thieno[2,3-d][1,3]oxazin-2-yl)-ethyl]-3-phenyl-3-thiophen-2-yl-acrylamide] | 16 nM | 300 nM |
| Cc1csc2nc([C@H](C)NC(=O)/C=C/c3ccc(Cl)s3)oc(=O)c12 [(E)-3-(5-Chloro-thiophen-2-yl)-N-[(S)-1-(5-methyl-4-oxo-4H-thieno[2,3-d][1,3]oxazin-2-yl)-ethyl]-acrylamide] | 17 nM | 280 nM |
| Cc1csc2nc([C@H](C)NC(=O)/C=C/c3ccc(O)cc3Cl)oc(=O)c12 [(E)-3-(2-Chloro-4-hydroxy-phenyl)-N-[(S)-1-(5-methyl-4-oxo-4H-thieno[2,3-d][1,3]oxazin-2-yl)-ethyl]-acrylamide] | 15 nM | – |
| Cc1csc2nc([C@H](C)NC(=O)/C=C/c3ccc([N+](=O)[O-])cc3)oc(=O)c12 [(E)-N-[(S)-1-(5-Methyl-4-oxo-4H-thieno[2,3-d][1,3]oxazin-2-yl)-ethyl]-3-(4-nitro-phenyl)-acrylamide] | 60 nM | 3600 nM |
| Cc1csc2nc([C@H](C)NC(=O)/C=C/c3ccc(C=O)cc3)oc(=O)c12 [(E)-3-(4-Formyl-phenyl)-N-[(S)-1-(5-methyl-4-oxo-4H-thieno[2,3-d][1,3]oxazin-2-yl)-ethyl]-acrylamide] | 94 nM | 2400 nM |
| Cc1csc2nc([C@H](C)NC(=O)/C=C/c3ccc(Br)s3)oc(=O)c12 [(E)-3-(5-Bromo-thiophen-2-yl)-N-[(S)-1-(5-methyl-4-oxo-4H-thieno[2,3-d][1,3]oxazin-2-yl)-ethyl]-acrylamide] | 8 nM | 210 nM |
| Cc1csc2nc([C@H](C)NC(=O)/C=C/c3c(F)cccc3F)oc(=O)c12 [(E)-3-(2,6-Difluoro-phenyl)-N-[(S)-1-(5-methyl-4-oxo-4H-thieno[2,3-d][1,3]oxazin-2-yl)-ethyl]-acrylamide] | 60 nM | 1700 nM |
| Cc1csc2nc([C@H](C)NC(=O)/C=C/c3ccc(N(C)C)cc3)oc(=O)c12 [(E)-3-(4-Dimethylamino-phenyl)-N-[(S)-1-(5-methyl-4-oxo-4H-thieno[2,3-d][1,3]oxazin-2-yl)-ethyl]-acrylamide] | 38 nM | 1800 nM |
| Cc1csc2nc([C@H](C)NC(=O)/C=C/c3c(Cl)cccc3Cl)oc(=O)c12 [(E)-3-(2,6-Dichloro-phenyl)-N-[(S)-1-(5-methyl-4-oxo-4H-thieno[2,3-d][1,3]oxazin-2-yl)-ethyl]-acrylamide] | 10 nM | > 34000 nM |
| Cc1csc2nc([C@H](C)NC(=O)/C=C/c3ccccc3)oc(=O)c12 [(E)-N-[(S)-1-(5-Methyl-4-oxo-4H-thieno[2,3-d][1,3]oxazin-2-yl)-ethyl]-3-phenyl-acrylamide] | 38 nM | 500 nM |
| Cc1cc(/C=C/C(=O)N[C@@H](C)c2nc3scc(C)c3c(=O)o2)c(C)s1 [(E)-3-(2,5-Dimethyl-thiophen-3-yl)-N-[(S)-1-(5-methyl-4-oxo-4H-thieno[2,3-d][1,3]oxazin-2-yl)-ethyl]-acrylamide] | 7 nM | 230 nM |

| SMILES | IC50 [1] | IC50 [2] |
| --- | --- | --- |
| CCOc1ccccc1/C=C/C(=O)N[C@@H](C)c1nc2scc(C)c2c(=O)o1 [(E)-3-(2-Ethoxy-phenyl)-N-[(S)-1-(5-methyl-4-oxo-4H-thieno[2,3-d][1,3]oxazin-2-yl)-ethyl]-acrylamide] | 15 nM | 510 nM |
| Cc1csc2nc([C@H](C)NC(=O)/C=C/c3sccc3Br)oc(=O)c12 [(E)-3-(3-Bromo-thiophen-2-yl)-N-[(S)-1-(5-methyl-4-oxo-4H-thieno[2,3-d][1,3]oxazin-2-yl)-ethyl]-acrylamide] | 58 nM | 1110 nM |
| Cc1csc2nc([C@H](C)NC(=O)/C=C/c3ccsc3Br)oc(=O)c12 [(E)-3-(2-Bromo-thiophen-3-yl)-N-[(S)-1-(5-methyl-4-oxo-4H-thieno[2,3-d][1,3]oxazin-2-yl)-ethyl]-acrylamide] | 51 nM | 620 nM |
| Cc1csc2nc([C@H](C)NC(=O)/C=C/c3ccsc3)oc(=O)c12 [(E)-N-[(S)-1-(5-Methyl-4-oxo-4H-thieno[2,3-d][1,3]oxazin-2-yl)-ethyl]-3-thiophen-3-yl-acrylamide] | 89 nM | – |
| Cc1csc2nc([C@H](C)NC(=O)/C=C/c3c(F)cccc3Cl)oc(=O)c12 [(E)-3-(2-Chloro-6-fluoro-phenyl)-N-[(S)-1-(5-methyl-4-oxo-4H-thieno[2,3-d][1,3]oxazin-2-yl)-ethyl]-acrylamide] | 36 nM | 2000 nM |
| COc1cc(/C=C/C(=O)N[C@@H](C)c2nc3scc(C)c3c(=O)o2)cc(OC)c1 [(E)-3-(3,5-Dimethoxy-phenyl)-N-[(S)-1-(5-methyl-4-oxo-4H-thieno[2,3-d][1,3]oxazin-2-yl)-ethyl]-acrylamide] | 21 nM | 8500 nM |
| Cc1ccc(/C=C/C(=O)N[C@@H](C)c2nc3scc(C)c3c(=O)o2)s1 [(E)-N-[(S)-1-(5-Methyl-4-oxo-4H-thieno[2,3-d][1,3]oxazin-2-yl)-ethyl]-3-(5-methyl-thiophen-2-yl)-acrylamide] | 33 nM | 580 nM |
| COc1cccc(OC)c1/C=C/C(=O)N[C@@H](C)c1nc2scc(C)c2c(=O)o1 [(E)-3-(2,6-Dimethoxy-phenyl)-N-[(S)-1-(5-methyl-4-oxo-4H-thieno[2,3-d][1,3]oxazin-2-yl)-ethyl]-acrylamide] | 180 nM | 21000 nM |
| Cc1ccccc1/C=C/C(=O)N[C@@H](C)c1nc2scc(C)c2c(=O)o1 [(E)-N-[(S)-1-(5-Methyl-4-oxo-4H-thieno[2,3-d][1,3]oxazin-2-yl)-ethyl]-3-o-tolyl-acrylamide] | 36 nM | – |
| Cc1csc2nc([C@H](C)NC(=O)/C=C/c3cc(Br)cs3)oc(=O)c12 [(E)-3-(4-Bromo-thiophen-2-yl)-N-[(S)-1-(5-methyl-4-oxo-4H-thieno[2,3-d][1,3]oxazin-2-yl)-ethyl]-acrylamide] | 33 nM | 1120 nM |
| Cc1csc2nc([C@H](C)NC(=O)/C=C/c3ccccn3)oc(=O)c12 [(E)-N-[(S)-1-(5-Methyl-4-oxo-4H-thieno[2,3-d][1,3]oxazin-2-yl)-ethyl]-3-pyridin-2-yl-acrylamide] | 170 nM | 1240 nM |
| Cc1csc2nc([C@H](C)NC(=O)/C=C/c3ccnc4ccccc34)oc(=O)c12 [(E)-N-[(S)-1-(5-Methyl-4-oxo-4H-thieno[2,3-d][1,3]oxazin-2-yl)-ethyl]-3-quinolin-4-yl-acrylamide] | 19 nM | 1100 nM |
| Cc1csc2nc([C@H](C)NC(=O)/C=C/c3ccccc3[N+](=O)[O-])oc(=O)c12 [(E)-N-[(S)-1-(5-Methyl-4-oxo-4H-thieno[2,3-d][1,3]oxazin-2-yl)-ethyl]-3-(2-nitro-phenyl)-acrylamide] | 76 nM | 2200 nM |
| Cc1csc2nc([C@H](C)NC(=O)C=C(c3ccccc3)c3ccccc3)oc(=O)c12 [N-[(S)-1-(5-Methyl-4-oxo-4H-thieno[2,3-d][1,3]oxazin-2-yl)-ethyl]-3,3-diphenyl-acrylamide] | 37 nM | 910 nM |
| Cc1csc2nc([C@H](C)NC(=O)/C=C/c3ccc([N+](=O)[O-])s3)oc(=O)c12 [(E)-N-[(S)-1-(5-Methyl-4-oxo-4H-thieno[2,3-d][1,3]oxazin-2-yl)-ethyl]-3-(5-nitro-thiophen-2-yl)-acrylamide] | 54 nM | 900 nM |
| Cc1csc2nc([C@H](C)NC(=O)/C=C/c3cccn3C)oc(=O)c12 [(E)-N-[(S)-1-(5-Methyl-4-oxo-4H-thieno[2,3-d][1,3]oxazin-2-yl)-ethyl]-3-(1-methyl-1H-pyrrol-2-yl)-acrylamide] | 29 nM | 220 nM |

From BindingDB's records for doi:10.1016/s0960-894x(99)00004-9 (Smithkline Beecham Pharmaceuticals, 1999)
